What follows are compounds tested on Radical scavenging activity (assay: Antioxidant activity assessed as DPPH free radical scavenging activity after 30 mins by spectrophotometric assay).

SMILES | IC50 [µM]
O=C(/C=C/c1ccc(O)cc1)OC[C@H]1O[C@@H](OCCc2ccc(O)c(O)c2)[C@H](O)[C@@H](O)[C@@H]1O | 18
Cc1cc(C(C)(C)C)c(O)c(C(C)(C)C)c1 [BUTYLATED HYDROXYTOLUENE] | 40
C[C@@H]1O[C@@H](O[C@@H]2[C@@H](O)[C@H](OCCc3ccc(O)c(O)c3)O[C@H](CO)[C@H]2OC(=O)/C=C/c2ccc(O)c(O)c2)[C@H](O)[C@H](O)[C@H]1O [ACETOSIDE] | 20
C[C@@H]1O[C@@H](O[C@@H]2[C@@H](O)[C@H](OCCc3ccc(O)c(O)c3)O[C@H](COC(=O)/C=C/c3ccc(O)c(O)c3)[C@H]2O)[C@H](O)[C@H](O)[C@H]1O [ISOACTEOSIDE] | 20
C[C@@H]1O[C@@H](OC[C@H]2O[C@@H](OCCc3ccc(O)c(O)c3)[C@H](O)[C@@H](O)[C@@H]2OC(=O)/C=C/c2ccc(O)c(O)c2)[C@H](O)[C@H](O)[C@H]1O [FORSYTHIASIDE] | 21
O=C1C[C@@H](c2ccc(O)c(O)c2)Oc2cc(O[C@@H]3O[C@H](CO)[C@@H](O)[C@H](O)[C@H]3O[C@@H]3O[C@H](CO)[C@@H](O)[C@H](O)[C@H]3O)cc(O)c21 | 12

More lines, now with the values ahead:

IC50 [µM] | SMILES
12 | O=c1cc(-c2ccc(O)c(O)c2)oc2cc(O[C@@H]3O[C@H](CO)[C@@H](O)[C@H](O)[C@H]3O[C@@H]3O[C@H](CO)[C@@H](O)[C@H](O)[C@H]3O)cc(O)c12
11 | O=c1cc(-c2ccc(O)c(O)c2)oc2cc(O[C@@H]3O[C@H](CO)[C@@H](O)[C@H](O)[C@H]3O)c(O)c(O)c12
8 | O=c1cc(-c2ccc(O)c(O)c2)oc2cc(O[C@@H]3O[C@H](CO)[C@@H](O)[C@H](O[C@@H]4O[C@H](CO)[C@@H](O)[C@H](O)[C@H]4O)[C@H]3O)c(O)c(O)c12

Source: ChEMBL document CHEMBL1141793, “Antioxidant constituents of the aerial parts of Globularia alypum growing in Morocco” (J Nat Prod, 2005)
